From patent US7994160B2, “Pyridazine compounds as glycogen synthase kinase 3 inhibitors” (Abbott GmbH & Co. KG, priority 2005, dated 2011)

Assays:
[1] = target: human Glycogen Synthase Kinase-3 beta (hGSK-3β) (Homo sapiens, UniProt P49841); assay: Biochemical hGSK-3Beta assay (33P-ATP phosphorylation of biotinylated peptide substrate); conditions: 10 μM ATP, 30 minutes at room temperature, read-out: GSK-3β IC50
Description: Methods—Biochemical hGSK-3Beta Assay
Compounds were tested for their ability to inhibit human Glycogen Synthase Kinase-3 beta (hGSK-3β) to phosphorylate biotin-[…](pS)EDEEE. Compounds were incubated with 0.5 μCi 33P-ATP, 10 μM ATP, 0.0125 U hGSK-3β (Upstate cell signaling solutions) and 1 μM substrate (biotin-[…](pS)EDEEE) in 50 mM HEPES, 10 mM MgCl2, […], 1 mM DTT, 0.0075% Triton, 2% DMSO (total volume 50 μL) for 30 minutes at room temperature. The incubation was stopped by addition of an equal volume of 100 mM EDTA, 4M NaCl. 80 μL of this mixture was added to streptavidin-coated Flashplates (PerkinElmer). Following a wash step, 33P incorporation was quantified on a MicroBeta microplate liquid scintillation counter (PerkinElmer). IC50's were determined by fitting a sigmoidal dose-response curve to the counts obtained at the different concentrations in GraphPad Prism.

[2] = system: β-catenin-modulated gene transcription; assay: β-Catenin reporter-gene assay (LEF/TCF TOPFLASH/FOPFLASH luciferase); assay type: cell-based; conditions: human neuroblastoma cells, 24 h; symbols +/++/+++ not defined
Description: Methods—β-Catenin Reporter-Gene Assay
Compounds were tested for their ability to modulate β-catenin-modulated gene transcription in a LEF/TCF (T-cell factor) reporter gene assay. […] human neuroblastoma cells were transiently transfected with 80 ng/well TOPFLASH plasmid (Up-state cell signaling solutions) containing two sets of three copies of the TCF binding site upstream of the Thymidine Kinase minimal promoter and firefly Luciferase open reading frame or with 80 ng/well FOPFLASH plasmid (Upstate cell signaling solutions) containing three copies of a mutated TCF binding site upstream of the Thymidine Kinase minimal promoter and firefly Luciferase open reading frame. In addition all cells were transiently transfected with the 20 ng/well pRL-TK plasmid (Promega) containing the herpes simplex virus thymidine kinase promoter to provide low to moderate levels of Renilla Luciferase expression. Transfection medium was exchanged for serum-free medium containing the test substance and incubated for 24 h at 37 degreed C. The incubation was stopped and quantified using the Dual Glo Luciferase Assay (Promega) as indicated and quantified on a Pherastar reader (BMG).
Firefly Luciferase activity was normalised for Renilla Luciferase activity per well. Subsequently, the normalised TOPFLASH response was compared to the normalised FOPFLASH response, thus giving the LEF/TCF specific signal. […]

Chain of human Glycogen Synthase Kinase-3 beta (hGSK-3β) (P49841 whole entry): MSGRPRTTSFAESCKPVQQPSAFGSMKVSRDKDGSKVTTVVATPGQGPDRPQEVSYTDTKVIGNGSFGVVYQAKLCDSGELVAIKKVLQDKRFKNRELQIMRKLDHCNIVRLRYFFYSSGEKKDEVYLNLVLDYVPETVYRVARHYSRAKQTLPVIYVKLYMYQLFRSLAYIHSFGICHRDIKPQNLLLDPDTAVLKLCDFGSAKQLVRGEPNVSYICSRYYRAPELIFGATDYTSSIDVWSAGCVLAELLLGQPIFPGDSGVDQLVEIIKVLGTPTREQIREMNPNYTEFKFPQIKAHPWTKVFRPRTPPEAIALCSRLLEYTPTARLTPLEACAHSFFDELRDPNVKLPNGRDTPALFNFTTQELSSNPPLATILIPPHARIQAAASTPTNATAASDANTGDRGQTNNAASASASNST

IC50 [1] | Compound | Cellular Activity in GSK-3β TOPFLASH assay [2]
625 nM | O=C1Nc2cc([N+](=O)[O-])ccc2Nc2nnc(Cl)cc21 [Example 4, 2-Chloro-8-nitro-5,10-dihydro-3,4,5,10-tetraaza-dibenzo[a,d]cyclohepten-11-one] | –
57000 nM | NC(=O)c1cccc2c1Nc1ccccc1C(=O)N2 [Example 6, 11-Oxo-10,11-dihydro-5H-dibenzo[b,e][1,4]diazepine-6-carboxylic acid amide, reference compound] | INACTIVE
101 nM | O=C1Nc2ncccc2Nc2nnc(Cl)cc21 [Example 7, 8-Chloro-5,10-dihydro-1,5,6,7,11-pentaaza-dibenzo[a,d]cyclohepten-11-one] | –
45 nM | C=Cc1cc2c(nn1)Nc1ccccc1NC2=O [Example 10, 2-Vinyl-5,10-dihydro-3,4,5,10-tetraaza-dibenzo[a,d]cyclohepten-11-one] | –
